Laboratory results taken from PubChem BioAssay (NCI).
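Five concentrations, 48 hours, 96-well plates. GI50: concentration for 50% inhibition of growth. The concentration for full growth arrest is given as TGI.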

What was measured:
Experiment in all cases: DTP human tumour cell line panel, 48 h
IGROV1 ovarian = system: IGROV1 ovarian
MCF7 breast = system: MCF7 breast
SF-539 CNS = system: SF-539 CNS
HCC-2998 colon = system: HCC-2998 colon
HL-60(TB) leukemia = system: HL-60(TB) leukemia
OVCAR-5 ovarian = system: OVCAR-5 ovarian
HCT-15 colon = system: HCT-15 colon
A549 NSCLC = system: A549 NSCLC
NCI-H460 lung = system: NCI-H460 lung
M14 melanoma = system: M14 melanoma
CAKI-1 renal = system: CAKI-1 renal
NCI-H226 lung = system: NCI-H226 lung
UO-31 renal = system: UO-31 renal
NCI-H23 lung = system: NCI-H23 lung
OVCAR-3 ovarian = system: OVCAR-3 ovarian
786-0 renal = system: 786-0 renal
SK-OV-3 ovarian = system: SK-OV-3 ovarian
OVCAR-8 ovarian = system: OVCAR-8 ovarian
RPMI-8226 leukemia = system: RPMI-8226 leukemia
SN12C renal = system: SN12C renal
A498 renal = system: A498 renal
ACHN renal = system: ACHN renal
HOP-92 NSCLC = system: HOP-92 NSCLC
RXF 393 renal = system: RXF 393 renal
EKVX NSCLC = system: EKVX NSCLC
UACC-257 melanoma = system: UACC-257 melanoma
SNB-75 CNS = system: SNB-75 CNS
PC-3 prostate = system: PC-3 prostate

COc1ccc(/C=C2/N=C(c3ccccc3)N(c3c(C)n(C)n(-c4ccccc4)c3=O)C2=O)cc1OC
GI50 (IGROV1 ovarian): > 100 µM | TGI (IGROV1 ovarian): > 100 µM | GI50 (MCF7 breast): 70.5 µM | TGI (MCF7 breast): > 100 µM | GI50 (SF-539 CNS): > 100 µM | TGI (SF-539 CNS): > 100 µM | GI50 (HCC-2998 colon): > 100 µM | TGI (HCC-2998 colon): > 100 µM | GI50 (HL-60(TB) leukemia): > 100 µM | TGI (HL-60(TB) leukemia): > 100 µM | GI50 (OVCAR-5 ovarian): > 100 µM | TGI (OVCAR-5 ovarian): > 100 µM | GI50 (HCT-15 colon): > 100 µM | TGI (HCT-15 colon): > 100 µM | GI50 (A549 NSCLC): > 100 µM | TGI (A549 NSCLC): > 100 µM | GI50 (NCI-H460 lung): > 100 µM | TGI (NCI-H460 lung): > 100 µM | GI50 (M14 melanoma): > 100 µM | TGI (M14 melanoma): > 100 µM | GI50 (CAKI-1 renal): 37.1 µM | TGI (CAKI-1 renal): > 100 µM | GI50 (NCI-H226 lung): > 100 µM | TGI (NCI-H226 lung): > 100 µM | GI50 (UO-31 renal): > 100 µM | TGI (UO-31 renal): > 100 µM | GI50 (NCI-H23 lung): > 100 µM | TGI (NCI-H23 lung): > 100 µM | GI50 (OVCAR-3 ovarian): > 100 µM | TGI (OVCAR-3 ovarian): > 100 µM | GI50 (786-0 renal): > 100 µM | TGI (786-0 renal): > 100 µM | GI50 (SK-OV-3 ovarian): > 100 µM | TGI (SK-OV-3 ovarian): > 100 µM | GI50 (OVCAR-8 ovarian): > 100 µM | TGI (OVCAR-8 ovarian): > 100 µM | GI50 (RPMI-8226 leukemia): > 100 µM | TGI (RPMI-8226 leukemia): > 100 µM | GI50 (SN12C renal): > 100 µM | TGI (SN12C renal): > 100 µM | GI50 (A498 renal): > 100 µM | TGI (A498 renal): > 100 µM | GI50 (ACHN renal): > 100 µM | TGI (ACHN renal): > 100 µM | GI50 (HOP-92 NSCLC): > 100 µM | TGI (HOP-92 NSCLC): > 100 µM | GI50 (RXF 393 renal): > 100 µM | TGI (RXF 393 renal): > 100 µM | GI50 (EKVX NSCLC): > 100 µM | TGI (EKVX NSCLC): > 100 µM | GI50 (UACC-257 melanoma): > 100 µM | TGI (UACC-257 melanoma): > 100 µM | GI50 (SNB-75 CNS): 86.4 µM | TGI (SNB-75 CNS): > 100 µM | GI50 (PC-3 prostate): > 100 µM | TGI (PC-3 prostate): > 100 µM
